Data on 3 molecules can be found in patent US6815542B2 (priority 2000, dated 2004).

Series [1] can be described thus: Oral administration in rats over four weeks (clinical pathology). The series is classed as in vivo. The settings on record: 180 mg/kg over four weeks. An excerpt:
Furthermore, it is contemplated that treatment of a viral disease with Levovirin is predominantly based on the modulation of the Th1/Th2 balance towards a Th1 dominated response, and not predominantly based on a direct antiviral effect. The term “direct antiviral” effect or activity as used herein refers to an immediate effect or activity of a drug on viral assembly or replication. In contrast, a reduction of viral activity or replication that is at least in part mediated by one or more components of the immune system is not considered a “direct antiviral” effect or activity. Likewise, it should be appreciated that a relative reduction of the Th2 response during a treatment may be especially advantageous in diseases that are correlated with an increased Th2 response (e.g., HCV infection).

Another series relates to IMP dehydrogenase. The settings on record: cited from earlier work.
The next series deals with ten different viruses. The following applies: compared with Ribavirin; cited from earlier work.
The conditions of series [2]: preliminary toxicology studies; cited from earlier work.

In the case of `NC(=O)c1ncn([C@H]2O[C@@H](CO)[C@H](O)[C@@H]2O)n1` [Levovirin], the “clinical pathology after oral administration” value in series [1] is reported as “did not produce any observable clinical pathology”.
Turning to `NC(=O)c1ncn([C@@H]2O[C@H](CO)[C@@H](O)[C@H]2O)n1` [Ribavirin, 1-β-D-ribofuranosyl-1,2,4-triazole-3-carboxamide], the “clinical pathology after oral administration” value in series [1] was “significant hemolytic anemia and leukopenia”. Moreover, the “inhibition of IMP dehydrogenase” value in the series with IMP dehydrogenase was “inhibitor of IMP dehydrogenase”.
Regarding `N=C(N)c1ncn([C@@H]2O[C@H](CO)[C@@H](O)[C@H]2O)n1` [Viramidine], in the series with ten different viruses, the antiviral activity result is recorded as “active in ten different viruses—comparable to Ribavirin”. Moreover, in the series on IMP dehydrogenase, the “inhibition of IMP dehydrogenase” value is “inhibitor of IMP dehydrogenase”. For the same molecule, the “toxicity relative to Ribavirin” value in series [2] is reported as “less toxic than Ribavirin”.
